Source: BigSolDB 2.1

COc1ccccc1OCCNCC(O)COc1cccc2[nH]c3ccccc3c12 (stereo not given)
Settings	solubility (mole fraction)
in PEG-400, 288.15 K	0.0501
in PEG-400, 293.15 K	0.0539
in PEG-400, 298.15 K	0.0582
in PEG-400, 303.15 K	0.062
in PEG-400, 308.15 K	0.0661

solubility (mole fraction)
Settings	288.15 K	293.15 K	298.15 K	303.15 K	308.15 K
in THF	0.0211	0.0235	0.0261	0.0291	0.0321
in acetone	0.0125	0.0147	0.0173	0.0201	0.023
in dichloromethane	0.00254	0.00334	0.00429	0.00556	0.00722
in ethanol	0.000677	0.000846	0.00106	0.00128	0.00158
in ethyl acetate	0.0015	0.00189	0.00239	0.00292	0.00362
in glycerin	0.000273	0.000307	0.000342	0.00038	0.000421
in isopropanol	0.000421	0.000555	0.000726	0.000947	0.00124
in methanol	0.000767	0.000959	0.0012	0.00149	0.00185
in n-butanol	0.000678	0.00079	0.000924	0.00108	0.00125
in n-propanol	0.000634	0.000791	0.000996	0.00122	0.00149
in propylene glycol	0.00138	0.00155	0.00174	0.00193	0.00213
